≈ marks a conversion by molar mass, not a printed value. Read-outs that look alike come from different tables or passages of the source.
Columns and labels:
Heterosigma akashiwo = assay: Inhibition of marine microalgae; assay type: cell-based; settings: microalga Heterosigma akashiwo; for IC50: Heterosigma akashiwo, read-out: IC50 H. akashiwo
Method: (§1) Mariculture is often threatened by harmful algal blooms and pathogenic bacteria. Compounds 1–5 and dankasterone A were assayed for inhibition of the three microalgae Chattonella marina, Heterosigma akashiwo, and Prorocentrum donghaiense, and the results are shown in Table 4. […] In addition, their inhibition against four marine-derived bacterial pathogens including Vibrio anguillarum, Vibrio harveyi, Vibrio parahaemolyticus, and Vibrio splendidus was detected using the disk diffusion method. […] The MIC values of active molecules were also measured, but only those of 4 and 5 (8 μg/mL) appeared lower than 10 μg/mL. […] In view of the above inhibitory effects of 1, 4, 5, and dankasterone A on the microalgal and bacterial species, their toxicities to the marine zooplankton Artemia salina were also tested.

Prorocentrum donghaiense = assay: Inhibition of marine microalgae; assay type: cell-based; settings: microalga Prorocentrum donghaiense; for IC50: Prorocentrum donghaiense, read-out: IC50 P. donghaiense
Method: as §1

Chattonella marina = assay: Inhibition of marine microalgae; assay type: cell-based; settings: microalga Chattonella marina; for IC50: Chattonella marina, read-out: IC50 C. marina
Method: as §1

Vibrio parahaemolyticus = assay: Antibacterial disk diffusion method; assay type: cell-based; settings: at 20 μg/disk, read-out: Inhibitory Zone Diameter V. parahaemolyticus
Method: as §1

Vibrio anguillarum = assay: Antibacterial disk diffusion method; assay type: cell-based; settings: at 20 μg/disk; for zone of inhibition at 20 µg/disc: Vibrio anguillarum, read-out: Inhibitory Zone Diameter V. anguillarum
Method: as §1

Vibrio harveyi = assay: Antibacterial disk diffusion method; assay type: cell-based; settings: at 20 μg/disk, read-out: Inhibitory Zone Diameter V. harveyi
Method: as §1

Vibrio splendidus = assay: Antibacterial disk diffusion method; assay type: cell-based; settings: at 20 μg/disk; for zone of inhibition at 20 µg/disc: Vibrio splendidus, read-out: Inhibitory Zone Diameter V. splendidus
Method: as §1

in vivo = settings: in vivo; marine zooplankton Artemia salina
Method: as §1

[1] = test system: V. harveyi and V. parahaemolyticus; assay: MIC of active molecules against marine-derived bacterial pathogens; assay type: cell-based, Vibrio harveyi, Vibrio parahaemolyticus; settings: bacterial strain not given, active molecules were those inhibiting V. harveyi and V. parahaemolyticus
Method: as §1

Artemia salina = assay: in vivo; settings: marine zooplankton Artemia salina
Method: as §1

SMILES	IC50 (Heterosigma akashiwo) [µg/mL]	IC50 (Prorocentrum donghaiense) [µg/mL]	IC50 (Chattonella marina) [µg/mL]	zone of inhibition at 20 µg/disc (Vibrio parahaemolyticus) [mm]	zone of inhibition at 20 µg/disc (Vibrio anguillarum) [mm]	zone of inhibition at 20 µg/disc (Vibrio harveyi) [mm]	zone of inhibition at 20 µg/disc (Vibrio splendidus) [mm]	LC50 (in vivo) [µg/mL]	IC50 P. donghaiense (Prorocentrum donghaiense) [µg/mL]	IC50 C. marina (Chattonella marina) [µg/mL]	MIC ([1]; read-out: MIC) [µg/mL]	Inhibitory Zone Diameter V. anguillarum (Vibrio anguillarum) [mm]	IC50 H. akashiwo (Heterosigma akashiwo) [µg/mL]	MIC [1] [µg/mL]	Inhibitory Zone Diameter V. splendidus (Vibrio splendidus) [mm]	LC50 A. salina (Artemia salina) [µg/mL]
CC(C)C(C)C=CC(C)C1CCC(=O)C23CC(=O)C4=CC(=NNc5ccccc5C(=O)O)CCC4(C)C2CCC13C (stereo not shown) [Compound 1, Penoxahydrazone A]	3.7 (≈ 6.62 µM)	0.68 (≈ 1.22 µM)	1.2 (≈ 2.15 µM)	> 10	0	> 10	0	58 (≈ 104 µM)								
COC(=O)C(Cc1ccc(O)cc1)n1cnc2ccccc2c1=O (stereo not shown) [Compound 4, Penoxazolone A]	8.1 (≈ 25 µM)			> 10		> 10	7.3	> 100	0.57 (≈ 1.76 µM)	2.8 (≈ 8.63 µM)	8	7.0				
COC(=O)C(Cc1ccc(O)cc1)n1cnc2ccccc2c1=O (stereo not shown) [Compound 5, Penoxazolone B]									1.2 (≈ 3.7 µM)	9.1 (≈ 28.1 µM)		0	9.0 (≈ 27.7 µM)	8	7.0	>100
[K+].[K+].[O]=[Cr](=[O])([O-])[O][Cr](=[O])(=[O])[O-] [Compound K2Cr2O7, K2Cr2O7, reference compound]									1.2	0.60			2.4			18
O=C(N[C@H](CO)[C@H](O)c1ccc([N+](=O)[O-])cc1)C(Cl)Cl [chloramphenicol, reference compound]				28	18	29	23									
CC(C)[C@@H](C)/C=C/[C@@H](C)[C@H]1CCC(=O)[C@]23CC(=O)C4=CC(=O)CC[C@]4(C)[C@H]2CC[C@]13C [dankasterone A]	4.6 (≈ 10.8 µM)	1 (≈ 2.36 µM)	1.9 (≈ 4.47 µM)	> 10	7	> 10	0	43 (≈ 101 µM)								
